This experiment deals with hOT7T175 (Homo sapiens, UniProt Q969F8, L364H). Kind of experiment: hOT7T175 receptor binding activity: binding inhibition of Cy-5-labeled metastin (40-54) on hOT7T175-expressed CHO cells. Also on record: expressed in transfected cells; host or cells: CHO cells. On the procedure:
Assay for hOT7T175 Receptor Binding Activity
h0T7T175-Expressed CHO cells were cultured in MEM-cc medium (nucleic acid-free) containing 10% dialyzed serum. The medium was removed and the adherent cells were washed with PBS. Then, PBS containing 5 mM EDTA was added and the cells were scraped from a flask with a cell scraper. […] To each well of a 96-Well Black Clear Bottom Plate (Applied Biosystems, Inc.), 10 μL of assay buffer containing 1% dimethylsulfoxide was added to examine total binding, 10 μL of 10 μM non-labeled peptide (having the same amino acid sequence as that of the labeled one) solution diluted with assay buffer to examine non-specific binding, and 10 μL of a test compound diluted with assay buffer to examine the binding inhibition activity of the test compound, respectively. Furthermore, 90 μL each of the cell suspension was dispensed to each well. […] The specific binding is a value obtained by subtracting the non-specific binding from the total binding.

Consider 21 compounds from patent US8361968B2 (Takeda Pharmaceutical Company Limited, priority 2002, dated 2013).

Square brackets hold non-standard residues; d marks the D form. Peptide text beside a SMILES is read from it. * marks the point of attachment. 2Nal = N[C@@H](Cc1ccc2ccccc2c1)C(=O)O; Arg(Me) = CNC(=N)NCCC[C@H](N)C(=O)O; Fmoc = O=C(OCC1c2ccccc2-c2ccccc21)*; 2Pal = N[C@@H](Cc1ccccn1)C(=O)O; 3Pal = N[C@@H](Cc1cccnc1)C(=O)O; d4Pal = N[C@H](Cc1ccncc1)C(=O)O; azaGly = NNC(=O)O

hOT7T175, sequence (Q969F8 whole entry L364H): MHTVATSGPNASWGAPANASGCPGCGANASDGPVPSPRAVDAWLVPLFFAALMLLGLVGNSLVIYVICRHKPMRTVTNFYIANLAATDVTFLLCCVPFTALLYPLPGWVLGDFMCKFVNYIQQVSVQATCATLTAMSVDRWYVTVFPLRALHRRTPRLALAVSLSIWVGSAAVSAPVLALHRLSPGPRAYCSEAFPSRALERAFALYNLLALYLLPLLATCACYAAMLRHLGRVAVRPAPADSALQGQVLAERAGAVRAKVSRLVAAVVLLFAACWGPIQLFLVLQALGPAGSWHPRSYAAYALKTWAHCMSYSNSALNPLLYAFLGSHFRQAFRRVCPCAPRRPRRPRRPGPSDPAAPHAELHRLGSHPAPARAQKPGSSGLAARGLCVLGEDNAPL

Regarding `CC(C)C[C@H](NC(=O)CNC(=O)[C@H](Cc1ccccc1)NC(=O)[C@H](CO)NC(=O)[C@H](CC(N)=O)NC(=O)[C@H](CC(C)C)NC(=O)[C@H](CC(N)=O)NC(=O)[C@@H](N)Cc1ccc(O)cc1)C(=O)N[C@@H](CCCNC(=N)N)C(=O)N[C@@H](Cc1ccccc1)C(N)=O` [Compound No. 68] (H-YNLNSFGLRF-NH2), the 50% inhibitory concentration (IC50) was 7.7 nM. Next, `CC(C)C[C@H](NC(=O)CNC(=O)[C@H](Cc1ccccc1)NC(=O)[C@H](CO)NC(=O)[C@H](CC(N)=O)NC(=O)[C@H](CO)NC(=O)[C@H](CC(N)=O)NC(=O)[C@@H](N)Cc1ccc(O)cc1)C(=O)N[C@@H](CCCNC(=N)N)C(=O)N[C@@H](Cc1ccccc1)C(N)=O` [Compound No. 69] (H-YNSNSFGLRF-NH2): 83 nM; `CC(C)C[C@H](NC(=O)CNC(=O)[C@H](Cc1ccccc1)NC(=O)[C@H](CO)NC(=O)[C@H](CC(N)=O)NC(=O)[C@H](Cc1c[nH]c2ccccc12)NC(=O)[C@H](CC(N)=O)NC(=O)[C@H](C)N)C(=O)N[C@@H](CCCNC(=N)N)C(=O)N[C@@H](Cc1ccccc1)C(N)=O` [Compound No. 72] (H-ANWNSFGLRF-NH2): 540 nM. Next, `CC(C)C[C@H](NC(=O)CNC(=O)[C@H](Cc1ccccc1)NC(=O)[C@H](CO)NC(=O)[C@H](CC(N)=O)NC(=O)[C@H](Cc1c[nH]c2ccccc12)NC(=O)[C@H](CC(N)=O)NC(=O)[C@@H](N)Cc1ccc(O)cc1)C(=O)N[C@@H](CCCNC(=N)N(C)C)C(=O)N[C@@H](Cc1ccccc1)C(N)=O` [Compound No. 83]: 25 nM; `CC(C)[C@H](NC(=O)CNC(=O)[C@H](Cc1ccccc1)NC(=O)[C@H](CO)NC(=O)[C@H](CC(N)=O)NC(=O)[C@H](Cc1c[nH]c2ccccc12)NC(=O)[C@H](CC(N)=O)NC(=O)[C@@H](N)Cc1ccc(O)cc1)C(=O)N[C@@H](CCCNC(=N)N)C(=O)N[C@@H](Cc1ccccc1)C(N)=O` [Compound No. 107] (H-YNWNSFGVRF-NH2): 120 nM. Next, `C/N=C(/NC)NCCC[C@H](NC(=O)[C@H](CC(C)C)NC(=O)CNC(=O)[C@H](Cc1ccccc1)NC(=O)[C@H](CO)NC(=O)[C@H](CC(N)=O)NC(=O)[C@H](Cc1c[nH]c2ccccc12)NC(=O)[C@H](CC(N)=O)NC(=O)[C@@H](N)Cc1ccc(O)cc1)C(=O)N[C@@H](Cc1ccccc1)C(N)=O` [Compound No. 129]: 83 nM; `CNC(=N)NCCC[C@H](NC(=O)[C@H](CC(C)C)NC(=O)CNC(=O)[C@H](Cc1ccccc1)NC(=O)[C@H](CO)NC(=O)[C@H](CC(N)=O)NC(=O)[C@H](Cc1c[nH]c2ccccc12)NC(=O)OCC1c2ccccc2-c2ccccc21)C(=O)N[C@@H](Cc1ccccc1)C(N)=O` [Compound No. 145, Fmoc-Trp-Asn-Ser-Phe-Gly-Leu-Arg(Me)-Phe-NH2] (Fmoc-WNSFGL[Arg(Me)]F-NH2): 120 nM. For the compound `CC(C)C[C@H](NC(=O)CNC(=O)[C@H](Cc1ccc(O)cc1)NC(=O)[C@H](CO)NC(=O)[C@H](CC(N)=O)NC(=O)[C@H](Cc1c[nH]c2ccccc12)NC(=O)[C@H](CC(N)=O)NC(=O)[C@@H](N)Cc1ccc(O)cc1)C(=O)N[C@@H](CCCNC(=N)N)C(=O)N[C@@H](Cc1ccccc1)C(N)=O` [Compound No. 150] (H-YNWNSYGLRF-NH2), the half-inhibitory concentration (IC50) worked out at 320 nM. Next, `CNC(N)=NCCC[C@H](NC(=O)[C@H](CC(C)C)NC(=O)NNC(=O)[C@H](Cc1ccccc1)NC(=O)[C@H](CO)NC(=O)[C@H](CC(N)=O)NC(=O)[C@H](CO)NC(=O)[C@H](CC(N)=O)NC(=O)[C@H](N)Cc1ccc(O)cc1)C(=O)N[C@@H](Cc1ccccc1)C(N)=O` [Compound No. 191, D-Tyr-Asn-Ser-Asn-Ser-Phe-AzaGly-Leu-Arg(Me)-Phe-NH2] (H-[dY]NSNSF[azaGly]L[Arg(Me)]F-NH2): 300 nM; `CNC(N)=NCCC[C@H](NC(=O)[C@H](CC(C)C)NC(=O)NNC(=O)[C@H](Cc1ccccc1)NC(=O)[C@H](CO)NC(=O)[C@H](CC(N)=O)NC(=O)[C@@H](NC(=O)[C@H](CC(N)=O)NC(=O)[C@H](N)Cc1ccc(O)cc1)[C@@H](C)O)C(=O)N[C@@H](Cc1ccccc1)C(N)=O` [Compound No. 221, D-Tyr-Asn-Thr-Asn-Ser-Phe-AzaGly-Leu-Arg(Me)-Phe-NH2] (H-[dY]NTNSF[azaGly]L[Arg(Me)]F-NH2): 95 nM. `CNC(=N)NCCC[C@H](NC(=O)[C@H](CC(C)C)NC(=O)CNC(=O)[C@H](Cc1ccccc1)NC(=O)[C@H](CO)NC(=O)[C@H](CC(N)=O)NC(=O)[C@@H](Cc1c[nH]c2ccccc12)NC(=O)[C@H](N)CC(N)=O)C(=O)N[C@@H](Cc1ccccc1)C(N)=O` [Compound No. 225, D-Asn-D-Trp-Asn-Ser-Phe-Gly-Leu-Arg(Me)-Phe-NH2] (H-[dN][dW]NSFGL[Arg(Me)]F-NH2) displayed an IC50 of 410 nM. Compared with the last compound, the IC50 is about 4.3-fold higher. Under `CNC(=N)NCCC[C@H](NC(=O)[C@H](CC(C)C)NC(=O)CNC(=O)[C@H](Cc1ccccc1)NC(=O)[C@H](CO)NC(=O)[C@H](CC(N)=O)NC(=O)[C@H](CO)NC(=O)[C@H](N)Cc1ccc(O)cc1)C(=O)N[C@@H](Cc1ccccc1)C(N)=O` [Compound No. 226] (H-[dY]SNSFGL[Arg(Me)]F-NH2) stands 100 nM; under `CNC(N)=NCCC[C@H](NC(=O)[C@H](CC(C)C)NC(=O)NNC(=O)[C@H](Cc1ccccc1)NC(=O)[C@H](CO)NC(=O)[C@H](CC(N)=O)NC(=O)[C@H](CO)NC(=O)[C@H](N)Cc1ccc(O)cc1)C(=O)N[C@@H](Cc1ccccc1)C(N)=O` [Compound No. 239, D-Tyr-Ser-Asn-Ser-Phe-AzaGly-Leu-Arg(Me)-Phe-NH2] (H-[dY]SNSF[azaGly]L[Arg(Me)]F-NH2), 120 nM. Next, `CC[C@H](C)[C@H](NC(=O)[C@H](N)Cc1ccc(O)cc1)C(=O)N[C@@H](CC(N)=O)C(=O)N[C@@H](CO)C(=O)N[C@@H](Cc1ccccc1)C(=O)NNC(=O)N[C@@H](CC(C)C)C(=O)N[C@@H](CCCNC(=N)NC)C(=O)N[C@@H](Cc1ccccc1)C(N)=O` [Compound No. 240, D-Tyr-Ile-Asn-Ser-Phe-AzaGly-Leu-Arg(Me)-Phe-NH2] (H-[dY]INSF[azaGly]L[Arg(Me)]F-NH2): 17 nM; `CNC(=N)NCCC[C@H](NC(=O)[C@H](CC(C)C)NC(=O)NNC(=O)[C@H](Cc1ccccc1)NC(=O)[C@H](CO)NC(=O)[C@H](CC(N)=O)NC(=O)[C@H](Cc1cccnc1)NC(=O)[C@H](CC(N)=O)NC(=O)[C@H](N)Cc1ccc(O)cc1)C(=O)N[C@@H](Cc1ccccc1)C(N)=O` [Compound No. 251, D-Tyr-Asn-Pya(3)-Asn-Ser-Phe-AzaGly-Leu-Arg(Me)-Phe-NH2] (H-[dY]N[3Pal]NSF[azaGly]L[Arg(Me)]F-NH2): 87 nM.

Compound `CNC(=N)NCCC[C@H](NC(=O)[C@H](CC(C)C)NC(=O)NNC(=O)[C@H](Cc1ccccc1)NC(=O)[C@H](CO)NC(=O)[C@H](CC(N)=O)NC(=O)[C@@H]1CCCN1C(=O)[C@H](CC(N)=O)NC(=O)[C@H](N)Cc1ccc(O)cc1)C(=O)N[C@@H](Cc1ccccc1)C(N)=O` [Compound No. 253, D-Tyr-Asn-Pro-Asn-Ser-Phe-AzaGly-Leu-Arg(Me)-Phe-NH2] (H-[dY]NPNSF[azaGly]L[Arg(Me)]F-NH2) showed an IC50 of 27 nM. Compound `CNC(N)=NCCC[C@H](NC(=O)[C@H](CC(C)C)NC(=O)NNC(=O)[C@H](Cc1ccccc1)NC(=O)[C@H](CO)NC(=O)[C@H](CC(N)=O)NC(=O)[C@H](Cc1ccc2ccccc2c1)NC(=O)[C@H](N)Cc1ccc(O)cc1)C(=O)N[C@@H](Cc1ccccc1)C(N)=O` [Compound No. 255, D-Tyr-Nal(2)-Asn-Ser-Phe-AzaGly-Leu-Arg(Me)-Phe-NH2] (H-[dY][2Nal]NSF[azaGly]L[Arg(Me)]F-NH2) came in with a 50% inhibitory concentration (IC50) of 33 nM. This IC50 and that of the compound before are within 1.5-fold of each other. As for `CNC(N)=NCCC[C@H](NC(=O)[C@H](CC(C)C)NC(=O)NNC(=O)[C@H](Cc1ccccc1)NC(=O)[C@H](CO)NC(=O)[C@H](CC(N)=O)NC(=O)[C@H](Cc1ccccc1)NC(=O)[C@@H](CC(N)=O)NC(=O)[C@H](N)Cc1ccc(O)cc1)C(=O)N[C@@H](Cc1ccccc1)C(N)=O` [Compound No. 257, D-Tyr-D-Asn-Phe-Asn-Ser-Phe-AzaGly-Leu-Arg(Me)-Phe-NH2] (H-[dY][dN]FNSF[azaGly]L[Arg(Me)]F-NH2), the half-maximal inhibitory concentration (IC50) was found to be 40 nM.

For `CNC(=N)NCCC[C@H](NC(=O)[C@H](CC(C)C)NC(=O)NNC(=O)[C@H](Cc1ccccc1)NC(=O)[C@H](CO)NC(=O)[C@H](CC(N)=O)NC(=O)[C@H](CCCNC(=N)N)NC(C)=O)C(=O)N[C@@H](Cc1ccccc1)C(N)=O` [Compound No. 275, Acetyl-Arg-Asn-Ser-Phe-AzaGly-Leu-Arg(Me)-Phe-NH2] (Ac-RNSF[azaGly]L[Arg(Me)]F-NH2), the half-inhibitory concentration (IC50) turned out to be 410 nM. In turn, `CNC(=N)NCCC[C@H](NC(=O)[C@H](CC(C)C)NC(=O)NNC(=O)[C@H](Cc1ccccc1)NC(=O)[C@H](CO)NC(=O)[C@H](CC(N)=O)NC(=O)[C@H](Cc1ccccn1)NC(=O)[C@H](CC(N)=O)NC(=O)[C@H](N)Cc1ccc(O)cc1)C(=O)N[C@@H](Cc1ccccc1)C(N)=O` [Compound No. 285, D-Tyr-Asn-Pya(2)-Asn-Ser-Phe-AzaGly-Leu-Arg(Me)-Phe-NH2] (H-[dY]N[2Pal]NSF[azaGly]L[Arg(Me)]F-NH2) yielded a 50% inhibitory concentration (IC50) of 40 nM. For the compound `CNC(N)=NCCC[C@H](NC(=O)[C@H](CC(C)C)NC(=O)NNC(=O)[C@H](Cc1ccccc1)NC(=O)[C@H](CO)NC(=O)[C@H](CC(N)=O)NC(=O)[C@@H](Cc1ccncc1)NC(=O)[C@H](CC(N)=O)NC(=O)[C@H](N)Cc1ccc(O)cc1)C(=O)N[C@@H](Cc1ccccc1)C(N)=O` [Compound No. 302, D-Tyr-Asn-D-Pya(4)-Asn-Ser-Phe-AzaGly-Leu-Arg(Me)-Phe-NH2] (H-[dY]N[d4Pal]NSF[azaGly]L[Arg(Me)]F-NH2), the half-maximal inhibitory concentration (IC50) was determined as 7.7 nM.
